Results: patent US8349333B2, “Allergy inhibitor compositions and kits and methods of using the same” (China Agricultural University, priority 2005, dated 2013)

Assays:
cats [1] = assay: Blood smear cell counts of control cats treated with nitenpyram; format: in vivo
Protocol: (§1) To determine relationship of infestation and FAD symptom, 10 cats were separated into three groups, including an experimental group with six cats and two control groups with two cats each. One control group was treated nitenpyram, and another was not treated with the nitenpyram. Each experimental cat was lived separated on day 0 and infested with 100 fleas. After two days, all cats in this group were given the nitenpyram to remove the flea from their bodies. Two of the control cats were also given this medicine on day 0. This challenge cycle was repeated every other week for 7 times
The anti-coagulant peripheral blood at 2 ml was collected on days 0, 2, 16, 30, 44, 58, 62 from the experiment group and day 0, 14, 28, 42, 56, 60 from the control groups. The same samples were collected after the immunization. A drop of blood was smeared on a clean glass slide. After the smear was dried, the cells were stained with Wright-Giemsa stain for 15 min. After a rinse in deionized water, the smear was gently dried with Kimwipe paper and dehydrated by 96% and 100% ethonol with each 10 seconds treatment. The slide was then treated with xylene for 30 min.
After the staining, nucleus and cytoplasm of blood cell was distinguished by a blue and pink staining. The percentage of each type of cells was counted by a total number of 200 cells in a view under a light microscope.

cats [2] = assay: Dermatological scores of control cats treated with nitenpyram; format: in vivo; details: control groups, FIG. 5
Protocol: as §1
Cats were scored by the dermatological assessments two days after ceasing each infestation. The assessments were included erythema, papules, crusts, scale, alopecia, excoriation. The body of each cat was divided into three portions to assess which part might have the most severe clinical outcome. According the previous documented report, three parts were consisted of: (1) back, from the head to the tail of dorsal surface; (2) double lateral abdomen, from the scapula to the tail; (3) chest and underside, from laryngeal to the caudomedial thighs.

[3] = peripheral blood, control group with nitenpyram, day 58

CCN(Cc1ccc(Cl)nc1)/C(=C/[N+](=O)[O-])NC [nitenpyram]
interference with the cell numbers in the cats' peripheral blood (cats [1]; comparison of the two control groups): not to interfere | Basophils (%) (cats [1]; [3]): 0.7% | Eosinophils (%) (cats [1]; [3]): 3.4% | Lymphocytes (%) (cats [1]; [3]): 21.8% | Monocytes (%) (cats [1]; [3]): 3.6% | Neutrophils (%) (cats [1]; [3]): 70.5% | dermatology score, cats treated with nitenpyram compared with the ones without treatment (cats [2]): no significant difference
